Reference: patent EP4692071A1, “PHOTOCHROMIC COMPOUND, NAPHTHOL DERIVATIVE, CURABLE COMPOSITION, OPTICAL ARTICLE, LENS, AND EYEGLASS” (TOKUYAMA CORPORATION, priority 2023, dated 2024)

Experiments:
Assay type in all cases: physicochemical
[1] = 23°C color optical density (A23): absorbancy difference ε(240)-ε(0) after 240 s light irradiation at 23°C; settings: 240 s irradiation
Method: (§1) • [1] Maximum Absorption Wavelength (λmax): The maximum absorption wavelength after color development, measured using a spectrophotometer (instantaneous multichannel photodetector MCPD3000) manufactured by Otsuka Electronics Co., Ltd. was used as an indicator for the color tone during the color development. • [2] 23°C Color Optical Density (A23): A difference between an absorbancy measured after light irradiation at 23°C for 240 seconds {ε(240)} and an absorbancy without light irradiation ε(0) at the maximum absorption wavelength was used as an indicator for the color optical density. […] 35°C Color Optical Density (A35): A difference between an absorbancy measured after light irradiation at 35°C for 240 seconds {ε(240)} and an absorbancy without light irradiation ε(0) at the first and second absorption wavelengths was used as an indicator for the color optical density. […] 23°C color fading half-life [τ1/2 (sec.)]: A time required for the absorbancy of the sample at the maximum absorption wavelength to decrease to 1/2 of {ε(240)-ε(0)} when the light irradiation is terminated after the light irradiation at 23°C for 240 seconds, was used as an indicator for the color fading speed. The shorter this time, the higher the color fading speed. • [6] Residual rate (A90/A0×100): The obtained photochromic plastic lens was subjected to accelerated deterioration using a xenon weather meter X25 manufactured by Suga Test Instruments Co., Ltd. for 90 hours. Subsequently, the color optical density was evaluated before and after the test, then a color optical density before the test (A0) and a color optical density after the test (A90) were measured, and a ratio (A90/A0) was defined as a residual rate. The residual rate was used as an indicator for a color developing durability. The higher the residual rate, the higher the color developing durability.

[2] = Residual rate (A90/A0×100) after 90 h accelerated deterioration in xenon weather meter X25, color developing durability; settings: xenon weather meter 90 hours
Method: as §1

[3] = High-temperature color development rate (A35/A23×100), temperature dependency
Method: as §1

[4] = 35°C color optical density (A35): absorbancy difference ε(240)-ε(0) after 240 s light irradiation at 35°C; settings: 240 s irradiation
Method: as §1

[5] = Maximum absorption wavelength (λmax) after color development, spectrophotometer MCPD3000
Method: as §1

[6] = cured product by kneading method, 1 mm
[7] = photochromic laminate by coating method, at the maximum absorption wavelength
[8] = photochromic laminate by coating method
[9] = binder sheet (binder method), urethaneurea resin photochromic layer between polycarbonate sheets, 0.25 mmol per 100 parts by mass resin
[10] = photochromic cured product by kneading method, 1 mm thick thiourethane, 0.106 mmol per 100 g monomers
[11] = photochromic laminate by coating method, 40 µm photochromic layer on thiourethane lens, 0.25 mmol compound per 100 g monomers
[12] = binder sheet (binder method), measured at 451 nm absorption maximum
[13] = binder sheet (binder method), measured at 565 nm absorption maximum
[14] = photochromic laminate by coating method, at 451 nm absorption maximum
[15] = photochromic laminate by coating method, at 566 nm absorption maximum

| A23 (-) ([1]; binder sheet (binder method)) | A23 (-) [1, 6] | A23 (-) [1, 7] | Residual rate (%) ([2]; binder sheet (binder method)) | Residual rate (%) [2, 6] | Residual rate (%) [2, 8] | A35/A23 *100 (%) ([3]; binder sheet (binder method)) | A35/A23 *100 (%) [3, 6] | A35/A23 *100 (%) [3, 8] | A35 (-) ([4]; binder sheet (binder method)) | A35 (-) [4, 6] | A35 (-) [4, 8] | Maximum absorption wavelength (nm) [5, 9] | Maximum absorption wavelength (nm) [5, 10] | Maximum absorption wavelength (nm) [5, 11] | SMILES | further results |
| --- | --- | --- | --- | --- | --- | --- | --- | --- | --- | --- | --- | --- | --- | --- | --- | --- |
| 1.52 - | 1.51 - | 1.49 - | 94% | 88% | 82% | 70% | 71% | 70% | 1.07 - | 1.07 - | 1.05 - | 510 nm | 514 nm | 510 nm | COc1ccc(C2(c3ccc(OC)cc3)C=Cc3c4c(c5cc(N(c6ccccc6)c6ccccc6)c(OC)cc5c3O2)-c2ccccc2C4(C)C)cc1 [Example 2 Formula (30)] |  |
| 1.11 - | 1.12 - | 1.0897 - | 97% | 90% | 84% | 68% | 69% | 68% | 0.76 - | 0.77 - | 0.74 - | 498 nm | 502 nm | 498 nm | CCCC1(CCC)c2ccccc2-c2c1c1c(c3cc(OC)c(N(C)c4ccccc4)cc23)OC(c2ccc(OC)cc2)(c2ccc(OC)cc2)C=C1 [Example 3 Formula (32)] |  |
| 1.20 - | 1.20 - | 1.18 - | 93% | 84% | 80% | 66% | 67% | 66% | 0.79 - | 0.81 - | 0.78 - | 496 nm | 500 nm | 496 nm | COc1ccc(C2(c3ccc(OC)cc3)C=Cc3c4c(c5cc(N(C)c6ccc(F)cc6)c(OC)cc5c3O2)-c2ccccc2C4(C)C)cc1 [Example 4 Formula (34)] |  |
| 1.37 - |  | 1.34 - | 94% |  | 80% | 71% |  | 71% | 0.97 - |  | 0.95 - | 499 nm |  | 499 nm | CCCOc1ccc(C2(c3ccc(OCCC)cc3)C=Cc3c4c(c5cc(N(CCOC)c6ccccc6)c(OC)cc5c3O2)-c2ccccc2C42CCCCCCC2)cc1 [Example 6 Formula (47)] |  |
|  | 1.20 - | 1.18 - |  | 80% | 75% |  | 66% | 64% |  | 0.79 - | 0.75 - |  | 549 nm | 545 nm | COc1ccc(C2(c3ccc(N4CCOCC4)cc3)C=Cc3c4c(c5cc(N6CCCc7ccccc76)c(OC)cc5c3O2)-c2ccc(C)cc2C4(CCCC(F)(F)F)CCCC(F)(F)F)cc1 (centres unmarked) [Example 8 Formula (54)] |  |
|  |  |  |  |  |  |  |  | 64% |  |  |  |  |  |  | CCC1(CC)CCC2(CC1)c1ccccc1-c1c2c2c(c3cc(OC)c(N(C)c4ccc(C(F)(F)F)cc4)cc13)OC(c1ccc(C)cc1)(c1ccc(OC)cc1)C=C2 (centres unmarked) [Example 9 Formula (57)] | A23 (-) [1, 12]: 0.75 -; A23 (-) [1, 13]: 0.88 -; A23 (-) ([1]; photochromic laminate by coating method, at the maximum absorption wavelength, at 451 nm absorption maximum): 0.73 -; A23 (-) ([1]; photochromic laminate by coating method, at the maximum absorption wavelength, at 566 nm absorption maximum): 0.86 -; Residual rate (%) [2, 12]: 95%; Residual rate (%) [2, 13]: 96%; Residual rate (%) [2, 14]: 83%; Residual rate (%) [2, 15]: 84%; A35/A23 *100 (%) [3, 12]: 66%; A35/A23 *100 (%) [3, 13]: 65%; A35 (-) [4, 12]: 0.49 -; A35 (-) [4, 13]: 0.56 -; A35 (-) [4, 14]: 0.47 -; A35 (-) [4, 15]: 0.55 -; Maximum absorption wavelength (nm) ([5]; binder sheet (binder method), urethaneurea resin photochromic layer between polycarbonate sheets, 0.25 mmol per 100 parts by mass resin, measured at 451 nm absorption maximum): 451 nm; Maximum absorption wavelength (nm) ([5]; binder sheet (binder method), urethaneurea resin photochromic layer between polycarbonate sheets, 0.25 mmol per 100 parts by mass resin, measured at 565 nm absorption maximum): 565 nm; Maximum absorption wavelength (nm) ([5]; photochromic laminate by coating method, 40 µm photochromic layer on thiourethane lens, 0.25 mmol compound per 100 g monomers, at 451 nm absorption maximum): 451 nm; Maximum absorption wavelength (nm) ([5]; photochromic laminate by coating method, 40 µm photochromic layer on thiourethane lens, 0.25 mmol compound per 100 g monomers, at 566 nm absorption maximum): 566 nm |
| 1.32 - | 1.34 - | 1.3 - | 94% | 89% | 82% | 66% | 68% | 66% | 0.87 - | 0.91 - | 0.86 - | 510 nm | 514 nm | 510 nm | CCCC1(CCC)c2ccccc2-c2c1c1c(c3cc(OC)c(N4CCOc5ccccc54)cc23)OC(c2ccc(OC)cc2)(c2ccc(OC)cc2)C=C1 [Example 10 Formula (59)] |  |
| 1.40 - |  | 1.38 - | 94% |  | 81% | 67% |  | 67% | 0.93 - |  | 0.92 - | 501 nm |  | 501 nm | CCCCC1(CCCC)c2ccccc2-c2c1c1c(c3cc(OC)c(N(c4ccc(F)cc4)c4ccc(F)cc4)cc23)OC(c2ccc(OC)cc2)(c2ccc(OC)cc2)C=C1 [Example 12 Formula (66)] |  |
| 1.6 |  | 1.57 - | 96% |  | 83% | 68% |  | 69% | 1.09 - |  | 1.08 - | 512 nm |  | 512 nm | CCCC1(CCC)c2ccccc2-c2c1c1c(c3cc(OC)c(N(c4ccccc4)c4ccc(C)cc4)cc23)OC(c2ccc(OC)cc2)(c2ccc(OC)cc2)C=C1 [Example 13 Formula (68)] |  |
| 1.93 |  | 1.89 - | 94% |  | 82% | 70% |  | 70% | 1.36 - |  | 1.33 - | 521 nm |  | 521 nm | CCCOc1ccc(C2(c3ccc(OCCC)cc3)C=Cc3c4c(c5cc(N(c6ccc(C)cc6)c6ccc(C)cc6)c(OC)cc5c3O2)-c2ccccc2C4(CCCCOCOC)CCCCOCOC)cc1 [Example 14 Formula (71)] |  |
|  | 1.22 - | 1.20 - |  | 81% | 75% |  | 63% | 62% |  | 0.76 - | 0.74 - |  | 527 nm | 523 nm | CCCCCCOc1ccc(C2(c3ccc(OC)cc3)C=Cc3c4c(c5cc(N(c6ccc(C)cc6)c6ccc(OC)cc6)c(OC)cc5c3O2)-c2ccccc2C42CC(C)(C)CC(C)(C)C2)cc1 (centres unmarked) [Example 15 Formula (75)] |  |
|  | 1.09 - | 1.06 - |  | 84% | 78% |  | 69% | 67% |  | 0.75 - | 0.71 - |  | 562 nm | 558 nm | CCCOc1ccc(C2(c3ccc(OC)cc3)C=Cc3c4c(c5cc(N(C)c6ccccc6)c(C)cc5c3O2)-c2ccc(C)cc2C4(CCCCOC)CCCCOC)cc1 (centres unmarked) [Example 17 Formula (79)] |  |
